{"source": "patent US20240124872A1", "about": "“IDENTIFICATION OF GENOMIC TARGETS” (University of Leeds, priority 2021, published 2024)", "key": {"TRPA1 knockout mice": {"tested_on": "TRPA1 knockout mice", "details": "cited from earlier work"}, "[1]": {"tested_on": "HeLa cells stably expressing CaMPARI-H396K", "assay": "AITC responsiveness via Fura-2 calcium imaging", "assay_type": "cell-based", "details": "unmodified HeLa cells stably expressing CaMPARI-H396K (HeLa-C); FIG. 4", "method": "FIG. 4 provides validation of TAGS (AITC-screen for TRPA1). a) a Piggy-Bac library was generated in Hela-C cells, stimulated with 100 uM AITC and co-incident photo-conversion light, and sorted via FACS based on CaMPARI red/green signal. b) Positive clones were collected as single cells, expanded into clonal populations, and testing for AITC responsiveness via Fura-2 calcium imaging. Percent responding cells are shown for each population. c-d) Example Fura-2 imaging traces. c) phenotypic negativity of HeLa-C cells. d) Example traces from population #22 in b. e) Genotyping of 100% responders. […] Blue arrows highlight transcription start site (TSS) of TRPA1. Red arrows highlight the true common insertion site (CIS) upstream of the TSS, found in every clone genotyped.\nA test sample from each positive clonal line was loaded with the fluorescent calcium indicator Fura-2AM for 30 minutes in regular media supplemented with 1 ul/ml PluronicF127, washed with Ringer solution, and tested for positivity for the phenotype in question using conventional fluorescent microscopy (see FIG. 4a-d). A further test sample from confirmed positive clonal lines was transfected (as described above) with the pCAG-Cre vector (Addgene) to induce transient Cre recombinase expression. Phenotypic positivity was then re-tested as above, and populations in which the phenotype […] are discarded. […]"}}}
{"compound": "C=CCN=C=S", "note": "[AITC]", "values": [{"measurement": "sensitivity to AITC", "setting": "TRPA1 knockout mice", "value": "lose all sensitivity"}, {"measurement": "AITC responses (calcium signalling)", "setting": "[1]", "value": "phenotypically negative"}]}
